From the supplement of paper PMC10307832

Key:
Assay in all cases: relative viability (nuclei count vs DMSO), 5 days (fraction); higher = more cells survive
AT-7519 + Foretinib = compound: O=C(NC1CCNCC1)c1n[nH]cc1NC(=O)c1c(Cl)cccc1Cl [AT-7519] + COc1cc2c(Oc3ccc(NC(=O)C4(C(=O)Nc5ccc(F)cc5)CC4)cc3F)ccnc2cc1OCCCN1CCOCC1 [Foretinib] (partner 0.25 µM)
Summary of the method: (§1)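 A single step with final 0.05% Triton X-100, 1% formaldehyde and 1 ug/ml Hoechst fixed the cells and stained nuclei 5 days after treatment. Lung cancer cell lines in 1536-well plates had been treated by pin tool the day after seeding with one drug alone or a fixed anchor-drug dose plus five library-drug doses (not always all listed) in √10 steps, and nuclei were counted on 4× images. Relative viability is the ratio of nuclei in treated wells to nuclei in vehicle wells, taken as the median of duplicate plates.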

AT-7519 + Crizotinib = compound: O=C(NC1CCNCC1)c1n[nH]cc1NC(=O)c1c(Cl)cccc1Cl [AT-7519] + C[C@@H](Oc1cc(-c2cnn(C3CCNCC3)c2)cnc1N)c1c(Cl)ccc(F)c1Cl [Crizotinib] (partner 1 µM)
Summary of the method: as §1

[1] = compound: C1=CC2=C(C=C(C(=C2N=C1)O)N=NC3=CC4=C(C=C3)C=C(C=C4)S(=O)(=O)O)S(=O)(=O)O + O=C(c1cc(Cc2n[nH]c(=O)c3ccccc23)ccc1F)N1CCN(C(=O)C2CC2)CC1 [Olaparib] (partner 8 µM)
Summary of the method: as §1

[2] = compound: C1=CC2=C(C=C(C(=C2N=C1)O)N=NC3=CC4=C(C=C3)C=C(C=C4)S(=O)(=O)O)S(=O)(=O)O + NC(=O)Nc1cc(-c2cccc(F)c2)sc1C(=O)N[C@H]1CCCNC1 [AZD7762] (partner 0.2 µM)
Summary of the method: as §1

Row | Cell Line | relative viability (AT-7519 + Foretinib; first compound 0.01 µM) | relative viability (AT-7519 + Foretinib; first compound 0.03162 µM) | relative viability (AT-7519 + Foretinib; first compound 0.3162 µM) | relative viability (AT-7519 + Foretinib; first compound 1 µM) | relative viability (AT-7519 + Crizotinib; first compound 0.01 µM) | relative viability (AT-7519 + Crizotinib; first compound 0.03162 µM) | relative viability (AT-7519 + Crizotinib; first compound 0.3162 µM) | relative viability (AT-7519 + Crizotinib; first compound 1 µM) | relative viability ([1]; first compound 0.08 µM) | relative viability ([1]; first compound 0.253 µM) | relative viability ([1]; first compound 0.8 µM) | relative viability ([1]; first compound 2.53 µM) | relative viability ([1]; first compound 8 µM) | relative viability ([2]; first compound 0.08 µM) | relative viability ([2]; first compound 0.253 µM) | relative viability ([2]; first compound 0.8 µM) | relative viability ([2]; first compound 2.53 µM) | relative viability ([2]; first compound 8 µM)
1 | LCLC-97TM1 | 0.859 | 0.946 | 0.817 | 0.437 | 0.334 | 0.254 | 0.328 | 0.191 | 0.41 | 0.38 | 0.432 | 0.338 | 0.32 | 0.354 | 0.22 | 0.292 | 0.214 | 0.314
2 | LCLC-103H | 0.773 | 0.704 | 0.879 | 0.677 | 1.05 | 1.08 | 0.999 | 1.27 | 0.774 | 0.721 | 0.735 | 0.779 | 0.753 | 0.85 | 0.801 | 0.758 | 0.774 | 0.891
3 | LK-2 | 1.04 | 1.16 | – | 0.95 | 0.229 | 0.235 | 0.251 | 0.227 | 0.892 | 0.678 | 0.581 | 0.74 | 0.728 | 0.549 | 0.345 | 0.369 | 0.452 | 0.285
4 | LOU-NH91 | 0.876 | 0.943 | 0.976 | 0.821 | 0.73 | 0.742 | 0.766 | 0.711 | 1.01 | 0.907 | 0.927 | 0.881 | 0.919 | 0.779 | 0.75 | 0.737 | 0.794 | 0.676
5 | LU99A | 0.873 | 0.771 | 0.801 | 0.556 | 0.579 | 0.539 | 0.517 | 0.357 | 0.264 | 0.282 | 0.286 | 0.257 | 0.243 | 0.433 | 0.376 | 0.421 | 0.35 | 0.37
6 | LXF-289 | 0.964 | 1 | 0.943 | 0.877 | 0.838 | 0.898 | 0.811 | 0.816 | 1.26 | 1 | 0.973 | 1.05 | 1.03 | 1.23 | 1.06 | 1.07 | 1.11 | 1.15
7 | NCI-H23 | 0.928 | 0.981 | 0.887 | 0.461 | 0.544 | 0.446 | 0.543 | 0.318 | 0.27 | 0.339 | 0.343 | 0.324 | 0.359 | 0.186 | 0.199 | 0.317 | 0.177 | 0.312
8 | NCI-H322M | 1.01 | 0.932 | 0.511 | 0.456 | 0.848 | 0.93 | 0.892 | 0.901 | 0.733 | 0.705 | 0.691 | 0.78 | 0.834 | 0.576 | 0.625 | 0.522 | 0.598 | 0.71
9 | NCI-H358 | 0.646 | 0.496 | 0.492 | 0.194 | 0.544 | 0.544 | 0.458 | 0.0912 | 0.656 | 0.555 | 0.551 | 0.57 | 0.569 | 0.375 | 0.667 | 0.426 | 0.544 | 0.518
10 | NCI-H441 | 1.04 | 1.01 | 0.949 | 0.63 | 0.656 | 0.905 | 0.673 | 0.428 | 0.617 | 0.57 | 0.586 | 0.531 | 0.595 | 1.18 | 1.08 | 0.946 | 1.13 | 1.13
11 | NCI-H460 | 1.05 | 0.821 | 1.05 | 0.233 | 0.858 | 0.9 | 0.608 | 0.0144 | 0.537 | 0.356 | 0.444 | 0.43 | 0.425 | 0.612 | 0.629 | 0.605 | 0.637 | 0.53
12 | NCI-H596 | 0.922 | 0.834 | 0.897 | 0.731 | 0.828 | 0.962 | 1.05 | 0.87 | 0.7 | 0.798 | 0.639 | 0.746 | 0.747 | 1.25 | 1.12 | 1.13 | 1.04 | 1.17
13 | NCI-H647 | 1.27 | 1.21 | 0.985 | 0.889 | 0.812 | 0.873 | 0.965 | 0.411 | 0.516 | 0.48 | 0.522 | 0.65 | 0.545 | 0.473 | 0.321 | 0.513 | 0.471 | 0.345
14 | NCI-H650 | 1.04 | 0.923 | 1.01 | 1.08 | 0.788 | 0.797 | 0.733 | 0.625 | 0.458 | 0.404 | 0.386 | 0.384 | 0.402 | 0.872 | 0.996 | 0.967 | 0.922 | 0.998
15 | NCI-H727 | 1.14 | 0.691 | 0.769 | 0.297 | 0.968 | 0.875 | 0.6 | 0.27 | 0.635 | 0.676 | 0.684 | 0.859 | 0.665 | 0.689 | 0.639 | 0.646 | 0.639 | 0.658
16 | NCI-H838 | 1.07 | 1.02 | 0.886 | 0.527 | 0.805 | 0.826 | 0.571 | 0.194 | 0.781 | 0.739 | 0.743 | 0.777 | 0.77 | 1.01 | 0.882 | 0.89 | 0.965 | 0.882
17 | NCI-H1355 | 0.906 | 0.989 | 1.02 | 0.854 | 1.1 | 1.02 | 1.13 | 0.943 | 0.736 | 0.717 | 0.748 | 0.728 | 0.711 | 0.801 | 0.726 | 0.723 | 0.824 | 0.64
